The source of these data is ChEMBL document CHEMBL1909046, “DrugMatrix in vitro pharmacology data”.

The nature of assay [1]: DRUGMATRIX: Sigma2 radioligand binding (ligand: [3H] Ifenprodil). The assay is classed as cell membranes, Rattus norvegicus, Wistar, Brain, Membrane. Particulars: Not Active = under 50% inhibition at 10 µM.
The target in assay [2] is T1, Alpha-2C adrenergic receptor (Homo sapiens, UniProt P18825).
T1 sequence (P18825 whole entry): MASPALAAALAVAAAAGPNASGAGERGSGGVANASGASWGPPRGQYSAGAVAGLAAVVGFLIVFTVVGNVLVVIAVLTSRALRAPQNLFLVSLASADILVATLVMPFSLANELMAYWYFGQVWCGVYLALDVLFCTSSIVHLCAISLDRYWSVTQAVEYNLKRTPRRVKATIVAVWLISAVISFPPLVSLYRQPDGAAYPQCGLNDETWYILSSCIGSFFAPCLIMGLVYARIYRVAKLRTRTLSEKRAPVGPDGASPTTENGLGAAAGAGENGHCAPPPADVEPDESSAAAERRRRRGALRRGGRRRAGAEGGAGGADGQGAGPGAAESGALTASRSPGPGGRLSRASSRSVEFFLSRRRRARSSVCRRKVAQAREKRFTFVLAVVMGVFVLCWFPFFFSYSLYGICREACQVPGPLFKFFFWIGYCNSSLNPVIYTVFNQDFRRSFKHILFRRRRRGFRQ
In words: DRUGMATRIX: Adrenergic Alpha-2C radioligand binding (ligand: [3H] MK-912). The assay is classed as cell membranes, Sf9, Membrane. As to conditions: sf9.

Assay [3] in a line: DRUGMATRIX: Imidazoline I2, Central radioligand binding (ligand: [3H] Idazoxan). The assay is classed as cell membranes, Rattus norvegicus, Wistar, Cerebral cortex, Membrane. Particulars: Not Active = under 50% inhibition at 10 µM.
The target of assay [4] is Sodium-dependent dopamine transporter (Homo sapiens, UniProt Q01959). Put plainly: DRUGMATRIX: Dopamine Transporter radioligand binding (ligand: [125I] RTI-55). In kind it is cell membranes, CHO-K1, Membrane. As to conditions: Not Active = under 50% inhibition at 10 µM.
Sequence of Sodium-dependent dopamine transporter (Q01959 whole entry): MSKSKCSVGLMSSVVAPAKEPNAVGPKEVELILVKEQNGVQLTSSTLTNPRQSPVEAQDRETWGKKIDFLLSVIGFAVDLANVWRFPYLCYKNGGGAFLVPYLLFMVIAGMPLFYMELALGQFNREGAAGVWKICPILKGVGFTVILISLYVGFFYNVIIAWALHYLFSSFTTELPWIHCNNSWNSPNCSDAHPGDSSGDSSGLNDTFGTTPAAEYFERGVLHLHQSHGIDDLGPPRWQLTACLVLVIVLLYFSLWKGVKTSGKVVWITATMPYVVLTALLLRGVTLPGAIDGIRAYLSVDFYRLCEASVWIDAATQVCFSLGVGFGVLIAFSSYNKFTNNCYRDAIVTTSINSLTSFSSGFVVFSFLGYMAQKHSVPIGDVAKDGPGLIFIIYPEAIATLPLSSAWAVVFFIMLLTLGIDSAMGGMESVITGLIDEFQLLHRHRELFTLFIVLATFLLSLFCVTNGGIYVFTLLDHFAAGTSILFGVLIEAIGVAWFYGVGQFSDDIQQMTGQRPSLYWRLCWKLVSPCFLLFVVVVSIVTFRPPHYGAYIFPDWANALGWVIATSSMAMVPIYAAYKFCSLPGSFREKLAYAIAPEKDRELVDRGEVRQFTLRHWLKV
A short description of assay [5]: DRUGMATRIX: Atrial Natriuretic Factor (ANF) radioligand binding (ligand: [125I] ANF (rat)). In kind it is cell membranes, Cavia porcellus, Dunkin-Hartley, Adrenal gland, Membrane. Particulars: Not Active = under 50% inhibition at 10 µM.
Another assay addresses T2, Thromboxane-A synthase (Homo sapiens, UniProt P24557).
T2 sequence (P24557 whole entry): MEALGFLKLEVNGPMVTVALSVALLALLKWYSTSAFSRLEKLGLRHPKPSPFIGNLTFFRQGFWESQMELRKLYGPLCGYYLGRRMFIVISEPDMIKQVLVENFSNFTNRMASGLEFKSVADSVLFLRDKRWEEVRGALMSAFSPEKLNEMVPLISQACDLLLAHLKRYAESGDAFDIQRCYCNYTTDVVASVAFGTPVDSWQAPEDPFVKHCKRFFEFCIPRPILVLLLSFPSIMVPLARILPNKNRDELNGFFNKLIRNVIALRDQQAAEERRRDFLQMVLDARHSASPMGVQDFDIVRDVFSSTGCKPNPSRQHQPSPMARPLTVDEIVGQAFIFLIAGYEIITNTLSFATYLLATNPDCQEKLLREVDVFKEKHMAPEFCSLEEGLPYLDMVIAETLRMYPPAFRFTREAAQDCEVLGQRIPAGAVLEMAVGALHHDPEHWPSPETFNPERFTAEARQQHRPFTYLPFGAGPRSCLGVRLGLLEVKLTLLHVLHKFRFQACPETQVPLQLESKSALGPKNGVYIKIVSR
In words: biochemical. The assay is classed as tissue-based, Platelet. As to conditions: platelet.

The nature of assay [6]: DRUGMATRIX: Leukotriene, BLT (LTB4) radioligand binding (ligand: [3H]LTB4). In kind it is cell membranes, Membrane. As to conditions: u-937; Not Active = under 50% inhibition at 10 µM.
In assay [7] the target is Vascular endothelial growth factor receptor 1 (Homo sapiens, UniProt P17948). The assay is classed as cell-based. As to conditions: huvec. Further: in other assays of this panel Not Active means under 50% inhibition at 10 µM.
Sequence of Vascular endothelial growth factor receptor 1 (P17948 whole entry): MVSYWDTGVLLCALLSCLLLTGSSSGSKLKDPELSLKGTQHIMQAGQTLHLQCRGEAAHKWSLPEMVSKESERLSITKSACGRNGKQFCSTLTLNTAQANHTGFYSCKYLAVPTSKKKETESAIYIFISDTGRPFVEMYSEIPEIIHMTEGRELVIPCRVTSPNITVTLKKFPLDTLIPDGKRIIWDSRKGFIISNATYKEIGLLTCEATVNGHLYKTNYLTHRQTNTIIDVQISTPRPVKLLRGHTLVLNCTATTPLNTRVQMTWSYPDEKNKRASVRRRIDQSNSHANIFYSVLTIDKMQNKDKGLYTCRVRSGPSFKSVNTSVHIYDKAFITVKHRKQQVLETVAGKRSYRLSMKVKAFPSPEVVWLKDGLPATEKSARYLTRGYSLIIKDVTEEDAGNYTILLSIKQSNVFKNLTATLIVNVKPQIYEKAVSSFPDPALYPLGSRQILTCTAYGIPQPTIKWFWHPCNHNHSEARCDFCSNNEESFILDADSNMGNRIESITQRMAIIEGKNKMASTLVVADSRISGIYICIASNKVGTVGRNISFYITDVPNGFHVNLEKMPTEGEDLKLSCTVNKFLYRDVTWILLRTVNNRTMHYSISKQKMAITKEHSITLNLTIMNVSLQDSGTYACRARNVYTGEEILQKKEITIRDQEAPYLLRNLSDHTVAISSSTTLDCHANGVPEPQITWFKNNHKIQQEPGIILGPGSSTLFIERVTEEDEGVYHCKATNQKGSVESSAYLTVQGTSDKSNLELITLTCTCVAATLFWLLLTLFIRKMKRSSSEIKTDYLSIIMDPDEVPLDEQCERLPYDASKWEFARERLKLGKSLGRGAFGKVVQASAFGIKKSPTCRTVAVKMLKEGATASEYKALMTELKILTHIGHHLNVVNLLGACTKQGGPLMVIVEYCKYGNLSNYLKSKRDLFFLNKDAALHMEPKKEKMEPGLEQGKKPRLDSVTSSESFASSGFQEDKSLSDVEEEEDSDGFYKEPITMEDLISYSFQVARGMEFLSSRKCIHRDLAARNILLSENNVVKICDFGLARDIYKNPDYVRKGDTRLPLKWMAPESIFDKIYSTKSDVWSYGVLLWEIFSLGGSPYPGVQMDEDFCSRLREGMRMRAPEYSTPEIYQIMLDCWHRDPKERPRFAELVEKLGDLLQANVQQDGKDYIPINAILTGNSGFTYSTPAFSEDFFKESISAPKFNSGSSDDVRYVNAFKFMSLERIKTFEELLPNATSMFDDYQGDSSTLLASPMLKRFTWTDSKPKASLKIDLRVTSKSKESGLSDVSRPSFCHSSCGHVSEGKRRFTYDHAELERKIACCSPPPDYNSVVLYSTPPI
The next assay addresses Glycine receptor (Rattus norvegicus, UniProt P22771+P24524+P07727+P20781). In kind it is cell membranes, Wistar, Spinal cord, Membrane.
Another assay deals with T3, D(4) dopamine receptor (Homo sapiens, UniProt P21917).
T3 sequence (P21917 whole entry): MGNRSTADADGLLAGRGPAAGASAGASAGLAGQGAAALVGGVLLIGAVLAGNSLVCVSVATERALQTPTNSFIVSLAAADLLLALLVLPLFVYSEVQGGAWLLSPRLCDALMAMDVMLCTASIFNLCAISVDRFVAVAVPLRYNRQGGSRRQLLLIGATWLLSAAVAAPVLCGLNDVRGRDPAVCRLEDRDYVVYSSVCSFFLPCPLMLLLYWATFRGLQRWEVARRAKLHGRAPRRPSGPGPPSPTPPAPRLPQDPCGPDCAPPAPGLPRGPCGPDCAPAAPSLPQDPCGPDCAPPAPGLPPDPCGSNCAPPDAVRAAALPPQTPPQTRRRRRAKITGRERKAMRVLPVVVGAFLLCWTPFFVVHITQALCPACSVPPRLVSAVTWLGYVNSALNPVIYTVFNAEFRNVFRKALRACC
Put plainly: DRUGMATRIX: Dopamine D4.2 radioligand binding (ligand: [3H] Spiperone). As to conditions: cho-k1; Not Active = under 50% inhibition at 10 µM. The assay is classed as cell membranes, CHO-K1, Membrane.

Assay [8] deals with C-C chemokine receptor type 5 (Homo sapiens, UniProt P51681). The assay is classed as cell membranes, Membrane. As to conditions: hek293.
Sequence of C-C chemokine receptor type 5 (P51681 whole entry): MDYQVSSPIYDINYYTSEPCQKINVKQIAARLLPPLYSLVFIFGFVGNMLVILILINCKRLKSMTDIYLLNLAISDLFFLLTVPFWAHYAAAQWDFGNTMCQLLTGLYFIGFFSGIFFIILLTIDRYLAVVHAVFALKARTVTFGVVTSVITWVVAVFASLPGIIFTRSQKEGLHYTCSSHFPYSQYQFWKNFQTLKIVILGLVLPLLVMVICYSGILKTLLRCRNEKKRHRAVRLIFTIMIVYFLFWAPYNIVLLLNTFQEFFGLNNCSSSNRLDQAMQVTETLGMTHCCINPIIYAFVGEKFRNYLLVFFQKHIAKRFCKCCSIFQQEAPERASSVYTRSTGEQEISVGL
The target in a further assay is Carbonic anhydrase 2 (Homo sapiens, UniProt P00918). In words: DRUGMATRIX: Carbonic Anhydrase II enzyme inhibition (substrate: 4-Nitrophenyl acetate (4-NPA)). In kind it is tissue-based, Erythrocyte. As to conditions: erythrocyte; Not Active = under 50% inhibition at 10 µM.
Another assay has as its target T4, Caspase-1 (Homo sapiens, UniProt P29466).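 Further: Caspase-1 enzyme inhibition assay with a peptide substrate; in other assays of this panel Not Active means under 50% inhibition at 10 µM.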
T4 sequence (P29466 whole entry): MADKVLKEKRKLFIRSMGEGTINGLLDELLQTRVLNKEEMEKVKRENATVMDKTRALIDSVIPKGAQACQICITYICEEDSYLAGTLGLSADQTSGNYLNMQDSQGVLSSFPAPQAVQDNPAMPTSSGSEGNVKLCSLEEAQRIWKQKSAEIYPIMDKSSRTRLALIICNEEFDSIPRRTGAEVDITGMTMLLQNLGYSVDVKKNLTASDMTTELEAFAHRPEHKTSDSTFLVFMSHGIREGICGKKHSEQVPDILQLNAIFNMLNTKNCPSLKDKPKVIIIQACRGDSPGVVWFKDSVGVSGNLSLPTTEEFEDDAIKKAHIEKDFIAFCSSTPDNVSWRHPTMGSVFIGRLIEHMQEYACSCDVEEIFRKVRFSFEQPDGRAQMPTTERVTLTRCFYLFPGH
Also noted: species or system Escherichia coli.

For the next assay, the target named is Nitric oxide synthase 1 (Rattus norvegicus, UniProt P29476). The assay is classed as tissue-based, Cerebellum. Further: in other assays of this panel Not Active means under 50% inhibition at 10 µM.
Sequence of Nitric oxide synthase 1 (P29476 whole entry): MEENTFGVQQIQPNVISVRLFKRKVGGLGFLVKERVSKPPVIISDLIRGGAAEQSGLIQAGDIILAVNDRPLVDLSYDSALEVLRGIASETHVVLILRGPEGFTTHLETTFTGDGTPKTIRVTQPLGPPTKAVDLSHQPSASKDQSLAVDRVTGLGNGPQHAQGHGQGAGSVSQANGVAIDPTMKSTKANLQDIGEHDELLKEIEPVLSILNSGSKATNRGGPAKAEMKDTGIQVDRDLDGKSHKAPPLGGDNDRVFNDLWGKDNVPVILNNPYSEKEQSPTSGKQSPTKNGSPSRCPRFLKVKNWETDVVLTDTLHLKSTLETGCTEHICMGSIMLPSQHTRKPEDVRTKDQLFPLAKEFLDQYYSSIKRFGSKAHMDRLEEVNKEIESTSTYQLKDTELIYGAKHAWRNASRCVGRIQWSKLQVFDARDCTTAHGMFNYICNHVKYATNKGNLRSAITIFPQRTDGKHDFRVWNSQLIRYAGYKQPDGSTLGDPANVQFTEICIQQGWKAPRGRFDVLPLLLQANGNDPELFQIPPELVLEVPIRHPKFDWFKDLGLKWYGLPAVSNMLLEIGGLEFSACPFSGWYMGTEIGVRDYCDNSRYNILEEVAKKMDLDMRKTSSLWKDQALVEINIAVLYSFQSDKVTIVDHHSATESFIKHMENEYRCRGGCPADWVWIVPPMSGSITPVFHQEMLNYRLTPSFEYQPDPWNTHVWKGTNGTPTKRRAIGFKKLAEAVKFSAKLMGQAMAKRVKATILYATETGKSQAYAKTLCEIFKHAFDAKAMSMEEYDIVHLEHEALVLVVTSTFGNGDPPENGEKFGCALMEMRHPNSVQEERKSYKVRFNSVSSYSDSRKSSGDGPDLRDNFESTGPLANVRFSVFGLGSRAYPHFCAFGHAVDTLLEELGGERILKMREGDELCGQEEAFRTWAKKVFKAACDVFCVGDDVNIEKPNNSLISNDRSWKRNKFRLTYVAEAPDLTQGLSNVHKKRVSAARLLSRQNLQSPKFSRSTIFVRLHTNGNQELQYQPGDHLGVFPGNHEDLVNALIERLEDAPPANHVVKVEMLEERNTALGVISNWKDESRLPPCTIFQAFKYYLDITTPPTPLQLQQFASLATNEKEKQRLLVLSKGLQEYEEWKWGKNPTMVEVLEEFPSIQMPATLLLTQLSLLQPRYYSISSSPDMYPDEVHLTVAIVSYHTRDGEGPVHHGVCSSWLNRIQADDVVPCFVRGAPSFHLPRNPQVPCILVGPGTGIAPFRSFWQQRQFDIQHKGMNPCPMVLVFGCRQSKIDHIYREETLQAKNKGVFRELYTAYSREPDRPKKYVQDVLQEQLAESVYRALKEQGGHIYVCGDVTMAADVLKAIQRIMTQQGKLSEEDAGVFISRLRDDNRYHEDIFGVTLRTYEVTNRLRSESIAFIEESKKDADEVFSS

Molecules are shown by their SMILES.

In the case of `COS(C)(=O)=O` [METHANESULFONIC ACID METHYL ESTER], the IC50 entry (in assay [1]; in assay [2]; in [3]; in assay [4] (cho-k1); in assay [5]; against Thromboxane-A synthase) was “Not Active” in each case. The IC50 entry (in assay [6]; in assay [7]; against Glycine receptor; on D(4) dopamine receptor; in assay [8]; against Carbonic anhydrase 2) was “Not Active” in each case. Further, the IC50 result at Caspase-1 and at Nitric oxide synthase 1 was “Not Active” each time. The Ki result in assay [1], in assay [3], in assay [5] and in assay [6] was “Not Active” throughout.
For `COC(=O)c1ccc(O)cc1` [METHYLPARABEN], the IC50 entry (in [1]; in assay [2]; in assay [3]; in assay [4] (cho-k1); in assay [5]; on Thromboxane-A synthase) was “Not Active” each time. Further, the IC50 entry (in assay [6]; in [7]; on Glycine receptor; at D(4) dopamine receptor; in assay [8]; on Carbonic anhydrase 2) was “Not Active” throughout. In addition, the IC50 result against Caspase-1 and against Nitric oxide synthase 1 was “Not Active” each time. For the same molecule, the inhibition constant (Ki) entry in [1], in assay [3], in [5] and in assay [6] was “Not Active” in each case.
Turning to `C[C@](N)(Cc1ccc(O)cc1)C(=O)O` [METYROSINE], the concentration for half-maximal inhibition (IC50) result (in assay [1]; in [2]; in [3]; in assay [4] (cho-k1); in assay [5]; against Thromboxane-A synthase) was “Not Active” throughout. For the same molecule, the half-inhibitory concentration (IC50) entry (in [6]; in assay [7]; on Glycine receptor; at D(4) dopamine receptor; in [8]; on Carbonic anhydrase 2) was “Not Active” in each case. For the same molecule, the IC50 result at Caspase-1 and against Nitric oxide synthase 1 was “Not Active” each time. In addition, the inhibition constant (Ki) result in assay [1], in assay [3], in [5] and in assay [6] was “Not Active” each time.
`Clc1ccc(C(c2ccccc2Cl)C(Cl)Cl)cc1` (centres undefined) [MITOTANE]: the IC50 entry is “Not Active” in assay [1]; “Not Active” in [2]; “Not Active” in [3]; 1000 nM in assay [4] (read-out: IC50); “Not Active” in assay [5]; “Not Active” against Thromboxane-A synthase. In addition, the IC50 entry (in [6]; in assay [7]; against Glycine receptor; on D(4) dopamine receptor; in assay [8]; at Carbonic anhydrase 2) was “Not Active” in each case. The IC50 entry on Caspase-1 and against Nitric oxide synthase 1 was “Not Active” each time. Moreover, the Ki result is “Not Active” in [1]; “Not Active” in assay [3]; 795 nM in [4] (read-out: Ki); “Not Active” in assay [5]; “Not Active” in [6].
In the case of `O=C1c2c(O)ccc(O)c2C(=O)c2c(NCCNCCO)ccc(NCCNCCO)c21` [MITOXANTRONE], the IC50 entry (in assay [1]; in assay [2]; in assay [3]; in assay [4] (cho-k1); in [5]; against Thromboxane-A synthase) was “Not Active” each time. The IC50 result (in [6]; in [7]; at Glycine receptor; on D(4) dopamine receptor; in [8]; on Carbonic anhydrase 2) was “Not Active” throughout. For the same molecule, the concentration for half-maximal inhibition (IC50) entry against Caspase-1 and at Nitric oxide synthase 1 was “Not Active” each time. Besides, the inhibition constant (Ki) result in assay [1], in assay [3], in [5] and in assay [6] was “Not Active” each time.
As to `COc1c(C)c2c(c(O)c1C/C=C(\C)CCC(=O)OCCN1CCOCC1)C(=O)OC2` [MYCOPHENOLATE MOFETIL], the IC50 entry (in [1]; in [2]; in [3]; in assay [4] (cho-k1); in assay [5]; against Thromboxane-A synthase) was “Not Active” each time. The IC50 entry (in [6]; in assay [7]; against Glycine receptor; at D(4) dopamine receptor; in assay [8]; on Carbonic anhydrase 2) was “Not Active” in each case. Further, the concentration for half-maximal inhibition (IC50) result against Caspase-1 and on Nitric oxide synthase 1 was “Not Active” each time. In addition, the inhibition constant Ki entry in assay [1], in assay [3], in assay [5] and in [6] was “Not Active” throughout.
